# Experiment: Flavor comparison in American beef extract base (FIG. 1), panel of trained testers
# Format: in vivo
# Settings: 1 ppm of 1:1 mixture in American beef extract base vs base with 0.05 wt. % MSG
# Excerpt: This is also shown by the spider diagram appended as FIG. 1, in which an American beef extract as a base is compared with (i) such a base having 1 ppm of a 1:1 mixture of 1-((1S,2S,5R)-2-isopropyl-5-methyl-cyclohexyl)-3-(3-methoxy-propyl)-urea (1) and 1-((1R,2R,5S)-2-isopropyl-5-methyl-cyclohexyl)-3-(3-methoxy-propyl)-urea (2) added and (ii) with such a base having 0.05 wt. % of MSG (sodium glutamate) added. The observations above apply accordingly for all mixtures to be used according to the invention.
# The flavor of a 0.5% American beef extract as the base (solid dark line) was compared with the aid of tasting by a panel of trained testers with the flavor firstly of such a base to which 1 ppm of a mixture of 1-((1S,2S,5R)-2-isopropyl-5-methyl-cyclohexyl)-3-(3-methoxy-propyl)-urea (1) and 1-((1R,2R,5S)-2-Isopropyl-5-methyl-cyclohexyl)-3-(3-methoxy-propyl)-urea (2) was added (solid light line), and secondly such a base to which 0.05 wt. % MSG was added (dotted line).
# The testers evaluated the strength of the test directions indicated, in each case by specifying marks on a scale of from 0 (no corresponding flavor) to 8 (very strong corresponding flavor). The average values of the respective marks are represented.
row,Molecule,flavor compared with sodium glutamate (MSG)
1,"1-((1S,2S,5R)-2-Isopropyl-5-methyl-cyclohexyl)-3-(3-methoxy-propyl)-urea (1)/1-((1R,2R,5S)-2-isopropyl-5-methyl-cyclohexyl)-3-(3-methoxy-propyl)-urea (2) [Synthesis Example 1]","clear umami flavor very closely approximating sodium glutamate (MSG), which also significantly enhances the saltiness of the base but without tasting unpleasantly sweet"

# Experiment: Flavor profile determined by a trained panel of at least 5 testers
# Format: in vivo
# Settings: table of further examples, prepared from racemic neo-menthol or neo-menthylamine and tasted
# Procedure: The flavor profiles were determined by a trained panel of at least 5 testers by tasting against a 0.5% strength salt and a 0.5% strength sugar solution
row,Molecule,Flavor Profile
1,CCOCCCNC(=O)N[C@H]1C[C@H](C)CC[C@H]1C(C)C (racemic),"fatty, tallow, dry- dusty, long-lasting, umami"
2,CC(C)[C@@H]1CC[C@@H](C)C[C@@H]1OC(=O)NCCCCO (racemic),"slightly bitter, salty, umami"
3,CC(C)[C@@H]1CC[C@@H](C)C[C@@H]1NC(=S)NC1CC1 (racemic),"bitter, mouthfeel, umami"
4,CC(C)[C@@H]1CC[C@@H](C)C[C@@H]1OC(=O)NC1CCCC1 (racemic),"bitter, salty"
5,CC(C)[C@@H]1CC[C@@H](C)C[C@@H]1OC(=O)NCc1ccc2c(c1)OCO2 (racemic),"bitter, umami"
6,CCOCCCNC(=O)O[C@H]1C[C@H](C)CC[C@H]1C(C)C (racemic),"rancid, musty, bitter, umami"
7,CCNC(=S)N[C@H]1C[C@H](C)CC[C@H]1C(C)C (racemic),"bitter, dry-dusty, umami"
8,CC(C)[C@@H]1CC[C@@H](C)C[C@@H]1NC(=O)NC1CC1 (racemic),"bitter, long-lasting, salty, umami"
9,CC(C)[C@@H]1CC[C@@H](C)C[C@@H]1NC(=O)NCCO (racemic),"alga, roasted note, umami, sweet"
10,CC(C)[C@@H]1CC[C@@H](C)C[C@@H]1NC(=O)NCC1CCCO1 (mixture of isomers),"salty, weakly umami"
11,CC(C)[C@@H]1CC[C@@H](C)C[C@@H]1OC(=O)NC1CC1 (racemic),"bitter, salty, umami"
12,COCC(C)NC(=O)O[C@H]1C[C@H](C)CC[C@H]1C(C)C (mixture of isomers),"bitter, metallic, umami"
13,CC(C)[C@@H]1CC[C@@H](C)C[C@@H]1NC(=O)NC1CCCC1 (racemic),"bitter, astringent, long-lasting, salty, metallic"
14,CC(C)[C@@H]1CC[C@@H](C)C[C@@H]1NC(=O)NCc1ccccc1 (racemic),"long-lasting, umami"
15,CC(C)[C@@H]1CC[C@@H](C)C[C@@H]1OC(=O)NCCCO (racemic),"soapy, vegetable, asparagus, potato, mouthfeel, slightly umami"
16,CCNC(=O)O[C@H]1C[C@H](C)CC[C@H]1C(C)C (racemic),"cooling, umami, menthol note"
17,CC(C)[C@@H]1CC[C@@H](C)C[C@@H]1OC(=O)NC1CCCCC1 (racemic),weakly sweet and weakly umami
18,CC(C)[C@@H]1CC[C@@H](C)C[C@@H]1NC(=O)NCCOCCO (racemic),"fatty, oily (fish), umami"
19,CC(C)[C@@H]1CC[C@@H](C)C[C@@H]1NC(=S)NC1CCCC1 (racemic),"bitter, long-lasting, umami, metallic"
20,COCCNC(=O)O[C@H]1C[C@H](C)CC[C@H]1C(C)C (racemic),"sweet, umami"
21,COCCCNC(=S)N[C@H]1C[C@H](C)CC[C@H]1C(C)C (racemic),"very bitter, umami"
22,CCOC(=O)CC(C)NC(=O)O[C@H]1C[C@H](C)CC[C@H]1C(C)C (mixture of isomers),"bitter, dry-dusty, tingling, slightly umami"
23,CC(C)[C@@H]1CC[C@@H](C)C[C@@H]1OC(=O)NCCOCCO (racemic),"fatty, tallow, oily, salty, metallic"
24,CC(C)[C@@H]1CC[C@@H](C)C[C@@H]1OC(=O)NCC1COC(C)(C)O1 (mixture of isomers),"sweet, bitter, caramel, salty"
25,CC(C)[C@@H]1CC[C@@H](C)C[C@@H]1NC(=O)NCC1COC(C)(C)O1 (mixture of isomers),"sweet, umami"
26,CC(C)[C@@H]1CC[C@@H](C)C[C@@H]1OC(=O)NCC1CCCO1 (mixture of isomers),"bitter, long-lasting, umami"
27,COCC(C)NC(=S)N[C@H]1C[C@H](C)CC[C@H]1C(C)C (mixture of isomers),"bitter, slightly umami"
28,CC(C)[C@@H]1CC[C@@H](C)C[C@@H]1OC(=O)Nc1ccccc1 (racemic),"bitter, dry, dusty, umami, dull"
29,CC(C)[C@@H]1CC[C@@H](C)C[C@@H]1NC(=O)NCc1ccc2c(c1)OCO2 (racemic),"salty, weakly umami"
30,COCCNC(=O)N[C@H]1C[C@H](C)CC[C@H]1C(C)C (racemic),"fishy, salty, umami"

# Same assay, conditions: trained panel of at least 5 testers, tasting against a 0.5% strength salt and a 0.5% strength sugar solution
row,Molecule,Flavor Profile
1,"1-((1S,2S,5R)-2-Isopropyl-5-methyl-cyclohexyl)-3-(2-methoxy-1-methyl-ethyl)-urea (5)/1-((1R,2R,5S)-2-isopropyl-5-methyl-cyclohexyl)-3-(2-methoxy-1-methyl-ethyl)-urea (6) [Synthesis Example 3]","long-lasting, salty, umami"
2,"3-[3-((1S,2S,5R)-2-Isopropyl-5-methyl-cyclohexyl)-ureido]-butyric acid ethyl ester (7)/3-[3-((1R,2R,5S)-2-isopropyl-5-methyl-cyclohexyl)-ureido]-butyric acid ethyl ester (8) [Synthesis Example 4]","bitter, salty, metallic, umami"
3,"1-((1S,2S,5R)-2-Isopropyl-5-methyl-cyclohexyl)-3-(3-methoxy-propyl)-urea (1)/1-((1R,2R,5S)-2-isopropyl-5-methyl-cyclohexyl)-3-(3-methoxy-propyl)-urea (2) [Synthesis Example 1]","sweet, salty, metallic, umami"
4,"CCOC(=O)CCCNC(=O)O[C@H]1C[C@H](C)CC[C@H]1C(C)C [(11), 4-((1S,2S,5R)-2-isopropyl-5-methyl-cyclohexyloxycarbonylamino)-butyric acid ethyl ester]","salty, umami, relatively weak in comparison with the racemate"
5,"1-(3-Hydroxy-propyl)-3-((1S,2S,5R)-2-isopropyl-5-methyl-cyclohexyl)-urea (3)/1-(3-Hydroxy-propyl)-3-((1R,2R,5S)-2-isopropyl-5-methyl-cyclohexyl)-urea (4) [Synthesis Example 2]","fishy, salty, weakly umami"
6,"CCOC(=O)CCCNC(=O)O[C@@H]1C[C@@H](C)CC[C@@H]1C(C)C [(12), 4-((1R,2R,5S)-2-isopropyl-5-methyl-cyclohexyloxycarbonylamino)-butyric acid ethyl ester]","salty, umami, delayed and weaker in comparison with the racemate"
7,"(3-Methoxy-propyl)-carbamic acid (1S,2S,5R)-2-isopropyl-5-methyl-cyclohexyl ester (9) and (3-methoxy-propyl)-carbamic acid (1R,2R,5S)-2-isopropyl-5-methyl-cyclohexyl ester (10) [Synthesis Example 5]","sweet, salty, umami, slightly bitter"
8,"COCCCNC(=O)O[C@@H]1C[C@@H](C)CC[C@@H]1C(C)C [(10), (3-methoxy-propyl)-carbamic acid (1R,2R,5S)-2-isopropyl-5-methyl-cyclohexyl ester]","umami, salty, metallic, not bitter"
9,"4-((1S,2S,5R)-2-Isopropyl-5-methyl-cyclohexyloxycarbonylamino)-butyric acid ethyl ester (11)/4-((1R,2R,5S)-2-isopropyl-5-methyl-cyclohexyloxycarbonylamino)-butyric acid ethyl ester (12) [Synthesis Example 6]","bitter, salty, umami"
10,"COCCCNC(=O)O[C@H]1C[C@H](C)CC[C@H]1C(C)C [(9), (3-methoxy-propyl)-carbamic acid (1S,2S,5R)-2-isopropyl-5-methyl-cyclohexyl ester]","umami, salty, metallic, bitter"

# Experiment: Saltiness of a stock tasted against a reference series of the same stock with different salt contents
# Format: in vivo
# Settings: stock with salt content 0.3% and 3 ppm added, reference series 0.2%, 0.4%, 0.5% salt
# Excerpt: In another test, the saltiness of a stock having a salt content of 0.3% and 5 ppm of an equimolar mixture of 1-(3-hydroxy-propyl)-3-((1S,2S,5R)-2-isopropyl-5-methyl-cyclohexyl)-urea (3) and 1-(3-hydroxy-propyl)-3-((1R,2R,5S)-2-isopropyl-5-methyl-cyclohexyl)-urea (4) added was tasted. The testers evaluated this stock against a reference series of this same stock with salt contents of 0.2%, 0.3%, 0.4% and 0.5%. The saltiness of the stock with a salt content of 0.3% and 5 ppm of an equimolar mixture of 1-(3-hydroxy-propyl)-3-((1S,2S,5R)-2-isopropyl-5-methyl-cyclohexyl)-urea (3) and 1-(3-hydroxy-propyl)-3-((1R,2R,5S)-2-isopropyl-5-methyl-cyclohexyl)-urea (4) added was evaluated with a saltiness of 0.36% on average.
# In another test, the saltiness of a stock having a salt content of 0.3% and 3 ppm of an equimolar mixture of (3-methoxy-propyl)-carbamic acid (1S,2S,5R)-2-isopropyl-5-methyl-cyclohexyl ester (9) and (3-methoxy-propyl)-carbamic acid (1R,2R,5S)-2-isopropyl-5-methyl-cyclohexyl ester (10) was tasted. The testers evaluated this stock against a reference series of this same stock with salt contents of 0.2%, 0.3%, 0.4% and 0.5%. […]
row,Molecule,saltiness evaluated on average [%]
1,"(3-Methoxy-propyl)-carbamic acid (1S,2S,5R)-2-isopropyl-5-methyl-cyclohexyl ester (9) and (3-methoxy-propyl)-carbamic acid (1R,2R,5S)-2-isopropyl-5-methyl-cyclohexyl ester (10) [Synthesis Example 5]",0.35

# Same assay, conditions: stock with salt content 0.3% and 5 ppm added, reference series 0.2%, 0.4%, 0.5% salt
row,Molecule,saltiness evaluated on average [%]
1,"1-(3-Hydroxy-propyl)-3-((1S,2S,5R)-2-isopropyl-5-methyl-cyclohexyl)-urea (3)/1-(3-Hydroxy-propyl)-3-((1R,2R,5S)-2-isopropyl-5-methyl-cyclohexyl)-urea (4) [Synthesis Example 2]",0.36
